{
  "source": "patent US20150245611A1",
  "about": "“ACTIVE INGREDIENT FOR CONTROLLING TRUE SPIDER MITES” (BAYER CROPSCIENCE AG, priority 2014, published 2015)",
  "format_in_all_cases": "in vivo",
  "key": {"Tetranychus urticae [1]": {"test_system": "Tetranychus urticae", "experiment": "Tetranychus urticae test; outdoor spray treatment (TETRUR) on cotton plants", "conditions": "G. hirsutum", "method": "(§1) To produce an appropriate active ingredient formulation, 1 part by weight of active ingredient is mixed with the stated amounts of water to the desired concentration. Added to the spray liquor is 0.1% a.i. Crovol.\nThree cotton plants (Gossypium hirsutum) infested by all stages of the red spider mite (Tetranychus urticae) are sprayed with an active ingredient formulation of each desired concentration. One spray application is conducted in each case.\nAfter the desired time, the remaining mites per leaf are counted and calculated as the efficacy by the Abbott formula:\n[formula] • B=treated plots • K=untreated control plots"}, "[2]": {"test_system": "Polyphagotarsonemus latus", "experiment": "Polyphagotarsonemus latus test; outdoor spray treatment (HEMTLA) on chilli plants", "conditions": "C. frutescens", "method": "as §1\nThree chilli plants (Capsicum frutescens) infested by all stages of the broad mite (Polyphagotarsonemus latus) are sprayed with an active ingredient formulation of each desired concentration. A spray application with a water application rate of 458 l/Ha is conducted in each case.\n(§2) After the desired time, the remaining mites per leaf are counted and calculated as the efficacy by the Abbott formula: […]"}, "[3]": {"test_system": "Polyphagotarsonemus latus", "experiment": "Polyphagotarsonemus latus test; outdoor spray treatment (HEMTLA) on bean plants", "conditions": "Ph. vulgaris, three sprays at 7-day intervals", "method": "as §1\nThree bean plants (Phaseolus vulgaris) infested by all stages of the broad mite (Polyphagotarsonemus latus) are sprayed with an active ingredient formulation of each desired concentration. Each plant is treated three times at 7-day intervals with a spray application with a water application rate of 200 l/Ha. The juncture of treatment of the plants with the first spray application X corresponds to the start point of the evaluation (Dat=0) (Dat=days after treatment). The further treatments were effected after 7 days (spray application Y), the third treatment after 14 days (spray application Z).\nas §2"}, "[4]": {"test_system": "Polyphagotarsonemus latus", "experiment": "Polyphagotarsonemus latus test; outdoor spray treatment (HEMTLA) on aubergine plants", "conditions": "S. melongena, 100 g of ai/ha, Dat 16", "method": "as §1\nThree aubergine plants (Solanum melongena) infested by all stages of the broad mite (Polyphagotarsonemus latus) are sprayed with an active ingredient formulation of each desired concentration. A spray application with a water application rate of 500 l/Ha is conducted in each case.\nas §2"}, "Tetranychus urticae [5]": {"test_system": "Tetranychus urticae", "experiment": "Tetranychus urticae test; outdoor spray treatment (TETRUR) on aubergine plants", "conditions": "S. melongena", "method": "as §1\nThree aubergine plants (Solanum melongena) infested by all stages of the red spider mite (Tetranychus urticae) are sprayed with an active ingredient formulation of each desired concentration. One spray application is conducted in each case.\nas §2"}, "[6]": {"test_system": "Polyphagotarsonemus latus", "experiment": "Polyphagotarsonemus latus test; outdoor spray treatment (HEMTLA) on bell pepper plants", "conditions": "Capsicum annuum, 100 g of ai/ha", "method": "as §1\nThree bell pepper plants (Capsicum annuum) infested by all stages of the broad mite (Polyphagotarsonemus latus) are sprayed with an active ingredient formulation of each desired concentration. A spray application with a water application rate of 500 l/Ha is conducted in each case.\nas §2"}, "[7]": {"conditions": "75 g of ai/ha (+Crovol 0.1%), Dat 7"}, "[8]": {"conditions": "100 g of ai/ha (+Crovol 0.1%), Dat 7"}, "[9]": {"conditions": "100 g of ai/ha (+Crovol 0.1%), Dat 14"}, "[10]": {"conditions": "100 g of ai/ha (+Crovol 0.1%), Dat 21"}},
  "data": [
    {"compound": "Cn1nc(C(F)(F)C(F)(F)F)c(C(F)(F)F)c1C(=O)Nc1ccc(Cl)c(C(=O)NCc2ccccc2)c1", "note": "[Compound (I)]", "values": [
      {"measurement": "Efficacy (% Abbott)", "setting": "Tetranychus urticae [1]; 100 g of ai/ha (+Crovol 0.1%), Dat 4", "value": 100, "unit": "% Abbott"},
      {"measurement": "Efficacy (% Abbott)", "setting": "Tetranychus urticae [1]; 100 g of ai/ha (+Crovol 0.1%), Dat 6", "value": 100, "unit": "% Abbott"},
      {"measurement": "Efficacy (% Abbott)", "setting": "[2]; [7]", "value": 63, "unit": "% Abbott"},
      {"measurement": "Efficacy (% Abbott)", "setting": "[2]; 75 g of ai/ha (+Crovol 0.1%), Dat 14", "value": 67, "unit": "% Abbott"},
      {"measurement": "Efficacy (% Abbott)", "setting": "[2]; 75 g of ai/ha (+Crovol 0.1%), Dat 21", "value": 50, "unit": "% Abbott"},
      {"measurement": "Efficacy (% Abbott)", "setting": "[2]; [8]", "value": 75, "unit": "% Abbott"},
      {"measurement": "Efficacy (% Abbott)", "setting": "[2]; [9]", "value": 75, "unit": "% Abbott"},
      {"measurement": "Efficacy (% Abbott)", "setting": "[2]; [10]", "value": 83, "unit": "% Abbott"},
      {"measurement": "Efficacy (% Abbott)", "setting": "[3]; 75 g of ai/ha (+Crovol 0.1%), Dat 3", "value": 72, "unit": "% Abbott"},
      {"measurement": "Efficacy (% Abbott)", "setting": "[3]; [7]", "value": 80.7, "unit": "% Abbott"},
      {"measurement": "Efficacy (% Abbott)", "setting": "[3]; 75 g of ai/ha (+Crovol 0.1%), Dat 14 (Y)", "value": 81.2, "unit": "% Abbott"},
      {"measurement": "Efficacy (% Abbott)", "setting": "[3]; 75 g of ai/ha (+Crovol 0.1%), Dat 21 (Z)", "value": 79.2, "unit": "% Abbott"},
      {"measurement": "Efficacy (% Abbott)", "setting": "[3]; 75 g of ai/ha (+Crovol 0.1%), Dat 28", "value": 49.7, "unit": "% Abbott"},
      {"measurement": "Efficacy (% Abbott)", "setting": "[3]; 100 g of ai/ha (+Crovol 0.1%), Dat 3", "value": 81.4, "unit": "% Abbott"},
      {"measurement": "Efficacy (% Abbott)", "setting": "[3]; 100 g of ai/ha (+Crovol 0.1%), Dat 7 (Y)", "value": 91.5, "unit": "% Abbott"},
      {"measurement": "Efficacy (% Abbott)", "setting": "[3]; 100 g of ai/ha (+Crovol 0.1%), Dat 14 (Z)", "value": 90, "unit": "% Abbott"},
      {"measurement": "Efficacy (% Abbott)", "setting": "[3]; [10]", "value": 91.9, "unit": "% Abbott"},
      {"measurement": "Efficacy (% Abbott)", "setting": "[3]; 100 g of ai/ha (+Crovol 0.1%), Dat 28", "value": 52.7, "unit": "% Abbott"},
      {"measurement": "Efficacy (% Abbott)", "setting": "[4]", "value": 100, "unit": "% Abbott"},
      {"measurement": "Efficacy (% Abbott)", "setting": "Tetranychus urticae [5]; 100 g of ai/ha (+Crovol 0.1%), Dat 5", "value": 99, "unit": "% Abbott"},
      {"measurement": "Efficacy (% Abbott)", "setting": "Tetranychus urticae [5]; [8]", "value": 100, "unit": "% Abbott"},
      {"measurement": "Efficacy (% Abbott)", "setting": "Tetranychus urticae [5]; [9]", "value": 100, "unit": "% Abbott"},
      {"measurement": "Efficacy (% Abbott)", "setting": "Tetranychus urticae [5]; [10]", "value": 99, "unit": "% Abbott"},
      {"measurement": "Efficacy (% Abbott)", "setting": "Tetranychus urticae [5]; 100 g of ai/ha (+Crovol 0.1%), Dat 29", "value": 99, "unit": "% Abbott"},
      {"measurement": "Efficacy (% Abbott)", "setting": "[6]; Dat 3", "value": 100, "unit": "% Abbott"},
      {"measurement": "Efficacy (% Abbott)", "setting": "[6]; Dat 7", "value": 99.8, "unit": "% Abbott"},
      {"measurement": "Efficacy (% Abbott)", "setting": "[6]; Dat 15", "value": 95.9, "unit": "% Abbott"},
      {"measurement": "Efficacy (% Abbott)", "setting": "[6]; Dat 21", "value": 85.5, "unit": "% Abbott"}
    ]},
    {"compound": "Cc1nn(C)c(/C(OC(=O)C(C)(C)C)=C(\\C#N)c2ccc(C(C)(C)C)cc2)c1C", "note": "[Cyenopyrafen, reference compound]", "values": [
      {"measurement": "Efficacy (% Abbott)", "setting": "Tetranychus urticae [1]; 150 g of ai/ha, Dat 4", "value": 98, "unit": "% Abbott"},
      {"measurement": "Efficacy (% Abbott)", "setting": "Tetranychus urticae [1]; 150 g of ai/ha, Dat 6", "value": 99, "unit": "% Abbott"},
      {"measurement": "Efficacy (% Abbott)", "setting": "[2]; 150 g of ai/ha, Dat 7", "value": 28, "unit": "% Abbott"},
      {"measurement": "Efficacy (% Abbott)", "setting": "[2]; 150 g of ai/ha, Dat 14", "value": 45, "unit": "% Abbott"},
      {"measurement": "Efficacy (% Abbott)", "setting": "[2]; 150 g of ai/ha, Dat 21", "value": 0, "unit": "% Abbott"},
      {"measurement": "Efficacy (% Abbott)", "setting": "[3]; 150 g of ai/ha, Dat 3", "value": 83.7, "unit": "% Abbott"},
      {"measurement": "Efficacy (% Abbott)", "setting": "[3]; 150 g of ai/ha, Dat 7 (Y)", "value": 63.8, "unit": "% Abbott"},
      {"measurement": "Efficacy (% Abbott)", "setting": "[3]; 150 g of ai/ha, Dat 14 (Z)", "value": 48.5, "unit": "% Abbott"},
      {"measurement": "Efficacy (% Abbott)", "setting": "[3]; 150 g of ai/ha, Dat 21", "value": 58.1, "unit": "% Abbott"},
      {"measurement": "Efficacy (% Abbott)", "setting": "[3]; 150 g of ai/ha, Dat 28", "value": 0, "unit": "% Abbott"}
    ]},
    {"compound": "CC(C)(C)c1ccc(CCOc2ncnc3ccccc23)cc1", "note": "[Fenazaquin, reference compound]", "values": [
      {"measurement": "Efficacy (% Abbott)", "setting": "[4]", "value": 97.9, "unit": "% Abbott"},
      {"measurement": "Efficacy (% Abbott)", "setting": "[6]; Dat 3", "value": 92.3, "unit": "% Abbott"},
      {"measurement": "Efficacy (% Abbott)", "setting": "[6]; Dat 7", "value": 96, "unit": "% Abbott"},
      {"measurement": "Efficacy (% Abbott)", "setting": "[6]; Dat 15", "value": 77.4, "unit": "% Abbott"},
      {"measurement": "Efficacy (% Abbott)", "setting": "[6]; Dat 21", "value": 33.5, "unit": "% Abbott"}
    ]},
    {"compound": "CCC(C)(C)C(=O)OC1=C(c2ccc(Cl)cc2Cl)C(=O)OC12CCCCC2", "note": "[Spirodiclofen, reference compound]", "values": [
      {"measurement": "Efficacy (% Abbott)", "setting": "Tetranychus urticae [5]; 48 g of ai/ha, Dat 5", "value": 63, "unit": "% Abbott"},
      {"measurement": "Efficacy (% Abbott)", "setting": "Tetranychus urticae [5]; 48 g of ai/ha, Dat 7", "value": 89, "unit": "% Abbott"},
      {"measurement": "Efficacy (% Abbott)", "setting": "Tetranychus urticae [5]; 48 g of ai/ha, Dat 14", "value": 97.5, "unit": "% Abbott"},
      {"measurement": "Efficacy (% Abbott)", "setting": "Tetranychus urticae [5]; 48 g of ai/ha, Dat 21", "value": 95, "unit": "% Abbott"},
      {"measurement": "Efficacy (% Abbott)", "setting": "Tetranychus urticae [5]; 48 g of ai/ha, Dat 29", "value": 80, "unit": "% Abbott"}
    ]}
  ]
}
